From US20220339257A1, “METHODS TO INCREASE THE SENSITIVITY AND REVERSING THE RESISTANCE TO DRUGS” (Biomarker Strategies, LLC, priority 2019, published 2022)

B1: interferon-alpha-1 (protein, UniProt P01562 24-189, looked up)
Interferon alpha-1/13: CDLPETHSLDNRRTLMLLAQMSRISPSSCLMDRHDFGFPQEEFDGNQFQKAPAISVLHELIQQIFNLFTTKDSSAAWDEDLLDKFCTELYQQLNDLEACVMQEERVGETPLMNADSILAVKKYFRRITLYLTEKKYSPCAWEVVRAEIMRSLSLSTNLQERLRRKE
notes: enhancer molecule, cytokine purchased from Sigma

Key:
Assay type in all cases: cell-based
[1] = system: erlotinib-resistant PC-9; experiment: WST-8 cell viability assay
Protocol: (§1) Day 1: cells were harvested cells from flask (4 mL accutase for T175 for 3-5 minutes), and spin down for 5 mins at 1200 rpm. The supernatant was poured off, and the pellet gently resuspended in 1 mL media. Countess counts were performed, and the cells were diluted in media (10% FBS). With multi-channel pipette, 2500 cells were seeded in 100 uL of media (10% FBS) in each well of 96 well plate. The cells were let to adhere and grow for 24 hours. Day 2: serial drug dilutions of MTAs+/−EMs at 5× of concentrations (as done above) were performed in media (10% FBS). 20 uL of media form each well of the 96 well plate (80 uL media left in wells) was removed, and 20 uL of appropriate 5× drug dilutions was added to each respective well (for a 1× conc). The cells were incubated with drug for 72 hours in 37C incubator. Day 5: 10 uL of WST-8 reagent was added to each well of the 96 well plate and mixed gently. the plates were incubated up to 4 hours at 37C in dark, and absorbance readings were taken at […] and 600 nm wavelengths at 1, 2, 3 and 4h, until control absorbance levels were 1.5-2.0).
(§2) WST-8 Assay: MTA and EM effects on cell viability were measured by Cell Counting Kit8 (WST-8) colorimetric assay using water-soluble tetrazolium salt WST-8 reagent (Vita Scientific Cat. #DBOC00128). For the assay, cells were seeded in 96-well plates at 2,500 cells per well, in 100 μL of 10% FBS-containing media. After 24 hours, a 1 nM to 10 μM range of MTA and/or 1 ng/mL to 1 mg/mL range of EM doses was added and incubated for 72 hours. After treatment, a 10% volume of WST-8 reagent was added to each well and cells were incubated at 37° C. for up to 4 hours. Solution absorbance was measured at wavelengths of 450 nm and 600 nm at 1-, 2-, 3-, and 4-hour's incubation. Percentage viability of drug-treated cells was calculated relative to untreated control cells. Results were confirmed by three independent experiments.
(§3) For studying the effects of various molecularly targeted agents (MTAs) and enhancer molecules (EMs) alone as well as in combination: HCC827, PC-9, A427, Calu-6, H2228, H358, H1299, H460, H292, H1838, H2170, and H226 (non-small cell lung cancer; NSCLC); and SK-MES-1 […], CAL27, OE21, KYSE-70, A-253, BICR-16, PE/CA-PJ15 and Ca9-22 (head and neck squamous cell carcinoma; HNSCC); SK-MEL-2, SK-MEL-28, RPMI-7951 and A7 (melanoma); HTB-38 and HCT116 (colorectal cancer; CRC); BxPC-3 and HPAF-II (pancreatic cancer); HEPG2 (hepatocellular carcinoma; HCC); A498 (renal cell carcinoma; RCC) cells were used. Other cell lines, including those from other cancer types, or cells collected from more complex sample types such as xenografts and clinical samples can be used. Ultimately, these combinations can be utilized in various clinical and pre-clinical samples and studies. Using the WST-8 cell viability assay, a MTA+EM-induced anti-cancer/anti-growth activity in multiple cell lines was discovered (FIGS. 8-15). Other viability assays, for example, MTT, HoPI staining, dye exclusion (e.g. trypan blue), can be used readily. […] The cut-off value for classifying a “strong anti-cancer/anti-growth enhancement” was a response resulting in >70% reduction in cell survival compared to untreated control cells (100%), while showing greater reduction compared to both MTA and EM alone.

[2] = system: OE21; experiment: WST-8 cell viability assay; conditions: in combination with GSK-458, 72 hours
Protocol: as §1, §2, §3

[3] = system: HTB-38; experiment: WST-8 cell viability assay; conditions: in combination with IFN-γ, 72 hours
Protocol: as §1, §2, §3

[4] = system: A498; experiment: WST-8 cell viability assay; conditions: in combination with cetuximab, 72 hours
Protocol: as §1, §2, §3

[5] = system: Calu-6; experiment: WST-8 cell viability assay; conditions: in combination with IFN-γ, 72 hours
Protocol: as §1, §2, §3

[6] = system: RPMI-7951; experiment: WST-8 cell viability assay
Protocol: as §1, §2, §3

[7] = system: BICR-16; experiment: WST-8 cell viability assay; conditions: in combination with IFN-γ, 72 hours
Protocol: as §1, §2, §3

[8] = system: PC-9; experiment: WST-8 cell viability assay; conditions: in combination with trametinib; PC-9 (EGFR E746_A750del); 72 hours
Protocol: as §1, §2, §3

[9] = system: EGFR WT sample (H1581); experiment: Immunocytochemistry biomarker staining; conditions: erlotinib+EM2 combination; WT EGFR smoker samples; 72 hours
Protocol: Cells at the seeding density of 10,000 cells per well were plated in 8 chamber slides in complete RPMI culture medium for overnight. After 24h cells were treated with RPMI media without the serum along with selected dose of erlotinib+EM2 and kept for additional 72 hours in incubation condition set at 37° C. in a humidified atmosphere of 95% air and 5% CO2. The chamber slides were rinsed with PBS before performing ICC staining. An Ambay kit (Catalog #10011A) purchased from Ambay Immune Sensors and Controls, LLC (AISC) (MD, USA) was used to perform ICC staining as per the kit instructions and using poly-HRP from Biogenix (CA, USA) was used to enable signal amplification and detection of specific bound antibody targets. A respective isotype antibody control was be kept for each biomarker. Counterstaining was performed before mounting and analysis.

[10] = system: Ca9-22; experiment: WST-8 cell viability assay
Protocol: as §1, §2, §3

[11] = in combination with GSK-458, 72 hours
[12] = in combination with trametinib, 72 hours

| Molecule | anti-cancer/growth enhancement (WST-8 cell viability) [1, 11] | anti-cancer/growth enhancement (WST-8 cell viability) [1, 12] | anti-cancer/growth enhancement (WST-8 cell viability) [2] | anti-cancer/growth enhancement (WST-8 cell viability) [3] | anti-cancer/growth enhancement (WST-8 cell viability) [4] | anti-cancer/growth enhancement (WST-8 cell viability) [5] | anti-cancer/growth enhancement (WST-8 cell viability) [6, 11] | anti-cancer/growth enhancement (WST-8 cell viability) ([6]; in combination with dabrafenib, 72 hours) | anti-cancer/growth enhancement (WST-8 cell viability) [7] | anti-cancer/growth enhancement (WST-8 cell viability) [8] | cell apoptosis (changes in nuclear staining of Bcl2, ICC) [9] | anti-cancer/growth enhancement (WST-8 cell viability) [10, 11] | anti-cancer/growth enhancement (WST-8 cell viability) ([10]; in combination with GSK-795, 72 hours) | anti-cancer/growth enhancement (WST-8 cell viability) ([10]; in combination with everolimus, 72 hours) | anti-cancer/growth enhancement (WST-8 cell viability) ([10]; in combination with metformin, 72 hours) | anti-cancer/growth enhancement (WST-8 cell viability) ([10]; in combination with osimertinib, 72 hours) | anti-cancer/growth enhancement (WST-8 cell viability) [10, 12] |
| --- | --- | --- | --- | --- | --- | --- | --- | --- | --- | --- | --- | --- | --- | --- | --- | --- | --- |
| tumor necrosis factor-alpha [EM2] | moderate-to-strong anti-cancer/growth enhancement | moderate-to-strong anti-cancer/growth enhancement | moderate-to-strong anti-cancer/growth enhancement | moderate-to-strong anti-cancer/growth enhancement | moderate-to-strong anti-cancer/growth enhancement | moderate-to-strong anti-cancer/growth enhancement | moderate-to-strong anti-cancer/growth enhancement | moderate-to-strong anti-cancer/growth enhancement | moderate-to-strong anti-cancer/growth enhancement | moderate-to-strong anti-cancer/growth enhancement | promoted cell apoptosis |  |  |  |  |  |  |
| B1 |  |  |  |  |  |  |  |  |  |  |  | anti-cancer/growth enhancement | anti-cancer/growth enhancement | anti-cancer/growth enhancement | anti-cancer/growth enhancement | anti-cancer/growth enhancement | anti-cancer/growth enhancement |
